Source: patent US7179823B1, “5-membered n-heterocyclic compounds with hypoglycemic and hypolipidemic activity” (Takeda Pharmaceutical Company Limited, priority 1999, dated 2007)

Work on `CCOC(=O)CCc1cn(Cc2cccnc2OCc2csc(-c3ccccc3)n2)nc1-c1ccccc1` [Example 299, ethyl 3-[3-phenyl-1-[2-(2-phenyl-4-thiazolylmethoxy)-3-pyridylmethyl]-1H-pyrazol-4-yl]propionate] yielded a melting point of 88 to 89 °C.

Work on `CCOc1nn(Cc2ccc(OCc3csc(-c4ccccc4)n3)nc2)cc1CCC(=O)O` [Example 254, 3-[3-ethoxy-1-[6-(2-phenyl-4-thiazolylmethoxy)-3-pyridylmethyl]-1H-pyrazol-4-yl]propionic acid] yielded a melting point of 121 to 122 °C.

`Cc1oc(-c2ccccc2)nc1COc1ccc(Cn2cc(CCC(=O)O)cn2)cc1` [Example 142, 3-[1-[4-(5-methyl-2-phenyl-4-oxazolylmethoxy)benzyl]-1H-pyrazol-4-yl]propionic acid] gave a melting point of 124 to 125 °C.

`CCOc1nn(Cc2ccc(OCc3nc4ccccc4n3C)cc2)cc1CCC(=O)O` [Example 248, 3-[3-ethoxy-1-[4-(1-methyl-1H-benzimidazol-2-ylmethoxy)benzyl]-1H-pyrazol-4-yl]propionic acid] gave a melting point of 177 to 178 °C.

With `CCOC(=O)CCc1cn(Cc2cc(OCc3nc(-c4ccccc4)oc3C)no2)nc1OCC` [Example 218, ethyl 3-[3-ethoxy-1-[3-(5-methyl-2-phenyl-4-oxazolylmethoxy)-5-isoxazolylmethyl]-1H-pyrazol-4-yl]propionate] the melting point was 82 to 83 °C.

Compound `O=C(O)CCc1cn(Cc2ccc(OCc3ccc(-c4ccccc4)cn3)cc2)nc1-c1ccc(F)cc1` [Example 296, 3-[3-(4-fluorophenyl)-1-[4-(5-phenyl-2-pyridylmethoxy)benzyl]-1H-pyrazol-4-yl]propionic acid] has a melting point of 162 to 163 °C.

In the case of `CCOc1nn(Cc2cc(OCc3ccc4ccccc4n3)no2)cc1CCC(=O)O` [Example 242, 3-[3-ethoxy-1-[3-(2-quinolylmethoxy)-5-isoxazolylmethyl]-1H-pyrazol-4-yl]propionic acid], the melting point is reported as 123 to 124 °C.

Work on `COc1cc(COc2nn(Cc3ccc(Oc4ccccc4)cc3)cc2C(=O)O)ccc1OCc1nc(-c2ccco2)oc1C` [Example 322, 3-[4-[2-(2-furyl)-5-methyl-4-oxazolylmethoxy]-3-methoxybenzyloxy]-1-(4-phenoxybenzyl)-1H-pyrazole-4-carboxylic acid] yielded a melting point of 153 to 154 °C.

For `O=C(O)CCc1cn(Cc2ccc3cc(OCc4ccccc4F)ccc3c2)cc1-c1ccccc1` [Example 56, 3-[1-[6-(2-fluorobenzyloxy)-2-naphthylmethyl]-4-phenyl-3-pyrrolyl]propionic acid], the melting point was 143 to 144 °C.

Work on `O=C(O)CCc1cn(Cc2ccc(OCc3ccccc3)cc2)nc1-c1ccccc1` [Example 77, 3-[1-(4-benzyloxybenzyl)-3-phenyl-1H-pyrazol-4-yl]propionic acid] yielded a melting point of 147 to 148 °C.

In the case of `CCOc1nn(Cc2ccc(OCc3cn4c(Cl)cccc4n3)cc2)cc1CCC(=O)O` [Example 225, 3-[1-[4-(5-chloroimidazo[1,2-a]pyridin-2-ylmethoxy)benzyl]-3-ethoxy-1H-pyrazol-4-yl]propionic acid], the melting point is reported as 153 to 154 °C.

`Cc1oc(-c2ccco2)nc1COc1ccc(Cn2cc(CCC(=O)O)c(-c3ccc(C(F)(F)F)cc3)n2)cc1` [Example 103, 3-[1-[4-[2-(2-furyl)-5-methyl-4-oxazolylmethoxy)benzyl]-3-(4-trifluoromethylphenyl)-1H-pyrazol-4-yl]propionic acid] showed a melting point of 92 to 93 °C.

Work on `Cc1oc(-c2ccccc2)nc1COc1ccc(Cn2cc(C(=O)O)c(-c3ccccc3)n2)cc1` [Example 93, 1-[4-(5-methyl-2 phenyl-4-oxazolylmethoxy)benzyl]-3-phenyl-1H-pyrazol-4-carboxylic acid] yielded a melting point of 165 to 166 °C.

Work on `Cc1oc(-c2ccccc2)nc1COc1ccc(Cn2cc(CCC(=O)O)c(-c3ccccc3)n2)nc1` [Example 306, 3-[1-[5-(5-methyl-2-phenyl-4-oxazolylmethoxy)-2-pyridylmethyl]-3-phenyl-1H-pyrazol-4-yl]propionic acid] yielded a melting point of 175 to 176 °C.

In the case of `O=C(O)CCc1cn(Cc2ccc(OCc3ccoc3)cc2)cc1-c1ccccc1` [Example 18, 3-[1-[4-(3-furylmethoxy)benzyl]-4-phenyl-3-pyrrolyl]propionic acid], the melting point is reported as 110 to 111 °C.

For `Cc1oc(-c2ccccc2)nc1CCOc1ccc(Cn2cc(CC(=O)O)c(-c3ccccc3)n2)cn1` [Example 314, [1-[6-[2-(5-methyl-2-phenyl-4-oxazolyl)ethoxy]-3-pyridylmethyl]-3-phenyl-1H-pyrazol-4-yl]acetic acid], the melting point was 148 to 149 °C.

For `CCOC(=O)c1cn(Cc2ccc(Oc3ccccc3)cc2)nc1OCc1nc(-c2ccccc2)oc1C` [Example 329, ethyl 3-(5-methyl-2-phenyl-4-oxazolylmethoxy)-1-(4-phenoxybenzyl)-1H-pyrazole-4-carboxylate], the melting point was 96 to 97 °C.

`CCOc1nn(Cc2cccc(OCc3nc(-c4ccccc4)oc3C)n2)cc1CCC(=O)O` [Example 223, 3-[3-ethoxy-1-[6-(5-methyl-2-phenyl-4-oxazolylmethoxy)-2-pyridylmethyl]-1H-pyrazol-4-yl]propionic acid] gave a melting point of 144 to 145 °C.

In the case of `CCOc1nn(Cc2ccc(OCc3nc(-c4ccco4)oc3C)nc2)cc1CC(=O)O` [Example 264, 3-ethoxy-1-[6-[2-(2-furyl)-5-methyl-4-oxazolylmethoxy]-3-pyridylmethyl]-1H-pyrazol-4-ylacetic acid], the melting point is reported as 155 to 156 °C.

`O=C(O)CCc1cn(Cc2ccc(OCc3csc(-c4ccccn4)n3)cc2)cc1-c1ccccc1` [Example 32, 3-[4-phenyl-1-[4-[2-(2-pyridyl)-4-thiazolylmethoxy)benzyl]-3-pyrrolyl]propionic acid] gave a melting point of 117 to 118 °C.

In the case of `O=C(O)CCc1cn(Cc2ccc(OCc3csc(-c4cccnc4)n3)cc2)cc1-c1ccccc1` [Example 46, 3-[4-phenyl-1-[4-[2-(3-pyridyl)-4-thiazolylmethoxy]benzyl]-3-pyrrolyl]propionic acid], the melting point is reported as 118 to 119 °C.

In the case of `Cc1oc(-c2ccccc2)nc1COc1nn(Cc2ccc(Oc3ccccc3)cc2)cc1C(N)=O` [Example 331, 3-(5-methyl-2-phenyl-4-oxazolylmethoxy)-1-(4-phenoxybenzyl)-1H-pyrazole-4-carbamide], the melting point is reported as 158 to 159 °C.

Compound `CCOc1cc(Cn2cc(CCC(=O)O)c(-c3ccccc3)c2)cc(OCc2csc(-c3cccs3)n2)c1` [Example 276, 3-[1-[3-ethoxy-5-[2-(2-thienyl)-4-thiazolylmethoxy)benzyl]-4-phenyl-3-pyrrolyl]propionic acid] has a melting point of 104 to 105 °C.

For `CCOC(=O)/C=C/c1cn(Cc2ccc(OCc3ccccc3)cc2)nc1-c1ccc(F)cc1` [Example 281, ethyl (E)-3-[1-(4-benzyloxybenzyl)-3-(4-fluorophenyl)-1H-pyrazol-4-yl]propenoate], the melting point was 113 to 114 °C.

Compound `CCOc1cc(Cn2cc(CCC(=O)O)c(-c3ccccc3)c2)cc(OCc2csc(-c3cnccn3)n2)c1` [Example 73, 3-[1-[3-ethoxy-5-[2-(2-pyrazinyl)-4-thiazolylmethoxy]benzyl]-4-phenyl-3-pyrrolyl]propionic acid] has a melting point of 97 to 98 °C.

`CCOc1nn(Cc2ccc(OCc3cncc(-c4ccccc4)c3)cc2)cc1CCC(=O)O` [Example 240, 3-[3-ethoxy-1-[4-(5-phenyl-3-pyridylmethoxy)benzyl]-1H-pyrazol-4-yl]propionic acid] gave a melting point of 92 to 93 °C.

In the case of `O=C(O)CCc1cn(Cc2cc(OCc3csc(-c4ccccc4)n3)cc(OCc3csc(-c4ccccc4)n3)c2)cc1-c1ccccc1` [Example 266, 3-[1-[3,5-bis(2-phenyl-4-thiazolylmethoxy)benzyl]-4-phenyl-3-pyrrolyl]propionic acid], the melting point is reported as 78 to 79 °C.

`CCOc1nn(Cc2ccc(OCc3nc(-c4ccccc4)oc3C)cc2)cc1CC(=O)O` [Example 260, 3-ethoxy-1-[4-(5-methyl-2-phenyl-4-oxazolylmethoxy)benzyl]-1H-pyrazol-4-ylacetic acid] gave a melting point of 125 to 126 °C.

Work on `CCOC(=O)/C=C/c1cn(Cc2ccc3cc(OCc4ccccc4)ccc3c2)cc1-c1ccccc1` [Example 52, ethyl(E)-3-[1-(6-benzyloxy-2-naphthylmethyl)-4-phenyl-3-pyrrolyl]propenoate] yielded a melting point of 119 to 120 °C.

With `O=C(O)CCc1cn(Cc2ccc(OCc3ccc4ccccc4n3)cc2)nc1-c1ccc(F)cc1` [Example 294, 3-[3-(4-fluorophenyl)-1-[4-(2-quinolylmethoxy)benzyl]-1H-pyrazol-4-yl]propionic acid] the melting point was 178 to 179 °C.

With `COC(=O)Cc1cn(Cc2ccc(OCc3ccccc3)cc2)nc1-c1ccc(F)cc1` [Example 318, methyl [1-(4-benzyloxybenzyl)-3-(4-fluorophenyl)-1H-pyrazol-4-yl]acetate] the melting point was 58 to 59 °C.

Work on `CCOc1nn(Cc2ccc(OCc3ccc4ccccc4n3)cc2)cc1CCC(=O)O` [Example 209, 3-[3-ethoxy-1-[4-(2-quinolylmethoxy)benzyl]-1H-pyrazol-4-yl]propionic acid] yielded a melting point of 140 to 141 °C.

In the case of `O=C(O)CCc1cn(Cc2ccc(OCc3ccsc3)cc2)cc1-c1ccccc1` [Example 22, 3-[4-phenyl-1-[4-(3-thienylmethoxy)benzyl]-3-pyrrolyl]propionic acid], the melting point is reported as 118 to 119 °C.

Work on `CCOc1nn(Cc2ccnc(OCc3cn4c(Cl)cccc4n3)c2)cc1CCC(=O)O` [Example 236, 3-[1-[2-(5-chloroimidazo[1,2-a]pyridin-2-ylmethoxy)-4-pyridylmethyl]-3-ethoxy-1H-pyrazol-4-yl]propionic acid] yielded a melting point of 160 to 161 °C.

`Cc1oc(-c2ccccc2)nc1COc1ccc2cc(Cn3cc(CCC(=O)O)c(-c4ccccc4)c3)ccc2c1` [Example 54, 3-[1-[6-(5-methyl-2-phenyl-4-oxazolylmethoxy)-2-naphthylmethyl]-4-phenyl-3-pyrrolyl]propionic acid] gave a melting point of 122 to 123 °C.

Work on `Cc1ncccc1COc1ccc2cc(Cn3cc(CCC(=O)O)c(-c4ccccc4)c3)ccc2c1` [Example 60, 3-[1-[6-(2-methyl-3-pyridylmethoxy)-2-naphthylmethyl]-4-phenyl-3-pyrrolyl]propionic acid] yielded a melting point of 163 to 164 °C.

With `CCOC(=O)CCc1cn(Cc2ccc(OCc3cn4c(Cl)cccc4n3)cc2)nc1OCC` [Example 224, ethyl 3-[1-[4-(5-chloroimidazo[1,2-a]pyridin-2-ylmethoxy)benzyl]-3-ethoxy-1H-pyrazol-4-yl]propionate] the melting point was 69 to 70 °C.
